In brackets after ≈: the same amount, converted by molar mass.
Assays:
[1] = Solubility measurement in water by HPLC, external standard method; assay type: physicochemical
Method: 3. Solubility Measurement in Water
The measurement was carried out by HPLC using an external standard method.

[2] = Stability of crystalline forms on storage at 40° C. for 20 days, purity by HPLC; assay type: physicochemical; conditions: for Purity after storage in the thermostatically controlled containers for 20 days / Purity before storage: HPLC
Method: Crystalline forms II, III, IV and VI are respectively placed in a thermostatically controlled container at 40° C. for 20 days. The stability of the said crystalline forms is assessed by high performance liquid chromatography.
Chromatographic conditions: octadecylsilane bonded silica as filler; a mixed solution of 10 mM/L phosphate buffer (adjusted to pH 7.0 by sodium hydroxide) and acetonitrile in 2:7 by volume as mobile phase; column temperature 40° C.; detection wavelength 220 nm. The purity is determined using an internal standard method.
The crystalline forms II, III, IV and VI were formulated with the mobile phase as 1 mg/mL solution. 10 μL of each of the solution was removed and injected into the liquid chromatograph. The chromatograms were recorded.
The assay was carried out using an external standard method as described under Purity Measurement of the Sample.

Solubility compared with the existing crystalline forms [1] | solubility ([1]; HPLC) | Stability compared with the existing crystalline forms ([2]; 40° C., 20 days) | Purity after storage in the thermostatically controlled containers for 20 days ([2]; 40° C., 20 days) | Purity before storage [2] | SMILES
superior | 1240 µg/mL (≈ 5.1 mM) | superior | 99.55% | 99.60% | COc1ccc2cccc(CCNC(C)=O)c2c1 [crystalline form VI, N-[2-(7-methoxy-1-naphthyl)ethyl]acetamide]
 |  |  | 99.54% | 99.82% | COc1ccc2cccc(CCNC(C)=O)c2c1 [crystalline form IV, N-[2-(7-methoxy-1-naphthyl)ethyl]acetamide]
 |  |  | 99.24% | 99.79% | COc1ccc2cccc(CCNC(C)=O)c2c1 [crystalline form II, N-[2-(7-methoxy-1-naphthyl)ethyl]acetamide]
 |  |  | 99.10% | 99.77% | COc1ccc2cccc(CCNC(C)=O)c2c1 [crystalline form III, N-[2-(7-methoxy-1-naphthyl)ethyl]acetamide]

— patent publication US8614251B2, “Crystalline form VI of agomelatine, preparation method and application thereof” (Les Laboratories Servier, priority 2009, dated 2013)
